This note sets out measurements from patent US20240180887A1, “USE OF PPAR(gamma) AGONISTS OR MPC INHIBITORS FOR TREATING PRIMARY, INNATE DISEASES OF THE CARDIAC MUSCLE (CARDIOMYOPATHIES)” (PREVENTAGE THERAPEUTICS GMBH, priority 2021, published 2024).

Assay [1] concerns PPARγ mRNA. Nature of the assay: Relative expression of PPARγ mRNA in the left ventricular myocardium (RtPCR). The format is in vivo, mouse. The settings on record: αMHC^719/+ mice, oral rosiglitazone, 6 weeks, compared to wild-type level. The method, then: FIG. 7 Relative expression of PPARγ mRNA in the left ventricular myocardium of untreated HCM mice and HCM mice (αMHC^719/+) treated with N-acetylcysteine (NAC) or rosiglitazone (Rosi) compared to wild-type mice (WT) after 6 weeks; ***: p<0.001.
RNA isolation was carried out by means of the peqGOLD Total RNA Kit (Peqlab) from the left ventricular myocardium according to the manufacturer's instructions. First-strand cDNA was synthesized from 500 ng of total RNA, which is reverse-transcribed (Reverse Transcription Kit, Invitrogen) with random hexamers (TIB Molbiol). RtPCR analysis is carried out with Perfecta SYBR Green fast Mix (VWR, Germany) in the QIAGEN Rotor-Gene Q (Corbett Rotor-Gene 6000). Quantification is done by means of […] calculation and randomization test^49,50.

Assay [2] deals with αMHC^719/+ HCM mouse model. Nature of the assay: Preclinical αMHC^719/+ HCM mouse model, overall summary of results. The format is in vivo. The settings on record: oral administration in the αMHC^719/+ HCM mouse model. The procedure:
The examinations were carried out on an established HCM mouse model, in which an arginine-to-tryptophan mutation at position 719 of the heavy chain of the cardiac mouse alpha-myosin gene was effected by homologous recombination (referred to as αMHC^719/+)^38. Such genetically modified mice increasingly develop the typical pathognomonic disease characteristics of hypertrophic cardiomyopathy such as myocardial hypertrophy and fibrosis with increasing age. The phenotype of this genetically generated HCM mouse model thus simulates the phenotype of HCM patients affected^36,37,38. The manifestation of the disease can be accelerated by subcutaneous administration of the calcineurin inhibitor cyclosporin A (CsA)^9.
Between their 6th and 12th postnatal week, all mice were injected subcutaneously with cyclosporin A (CsA) to accelerate hypertrophic remodeling in the myocardium in the HCM mouse model^9. Half of the mice were treated with the PPARγ agonists rosiglitazone and pioglitazone from the group of thiazolidinediones between their 6th and 12th postnatal week. In their 12th postnatal week, they were subjected to in vivo transthoracic echocardiography. The animals were then euthanized for ex vivo examination (organ removal, histopathology, and determination of radical oxygen species, of mRNA and protein expression in the tissue) (see FIG. 10).D

For assay [3], the system named is HCM mice (αMHC^719/+). Nature of the assay: Echocardiography: maximum left ventricular wall thickness, stereoisomers of pioglitazone (experimental setup C). In kind it is in vivo, mouse. The note with it: αMHC^719/+ mice, 10 mg/kg/day orally, 6 weeks, vs untreated αMHC^719/+. An excerpt:
This experimental protocol examined the action of the two stereoisomers of a thiazolidinedione (pioglitazone) ((S)- and (R)-stereoisomers) in the same hypertrophic cardiomyopathy mouse model as described for experimental setup A. The experimental setup is thus similar to the experimental setup according to A. The animals were genotyped in their 3rd postnatal week (as also described in accordance with experimental setup A). Between their 6th and 12th postnatal week, all 65 mice were orally administered a daily dose of 30 mg/kg cyclosporin A (CsA) which was added to their pellet diet to accelerate hypertrophic remodeling in the myocardium in the HCM mouse model^56. Between their 6th and 12th postnatal week, (a) 13 WT and 9 MHC^719/+ mice were in addition treated orally with the (R)-stereoisomer of a thiazolidinedione (pioglitazone) (10 mg/kg/day) or (b) 12 WT and 11 αMHC^719/+ mice were in addition treated orally with the (S)-stereoisomer (pioglitazone) (10 mg/kg/day). In their 12th postnatal week, they were subjected to in vivo transthoracic echocardiography. The animals were then euthanized for ex vivo examination (organ removal and histopathology) (see FIG. 11). As shown in experimental setup A, in vivo phenotyping of the left ventricular wall thickness and ventricular function was done by means of transthoracic echocardiography, as described above^40,41,39. Examination by echocardiography was done as follows—specifically: removal of the mice from the cage, weighing and visual assessment of the animals, performance of echocardiography according to standardized, published standard protocols in conscious animals after 30 minutes of observation^39,41,37,40. In order to quantify fibrosis, the removed hearts were fixed in 4% of paraformaldehyde, dehydrated, and placed in paraffin, as described above^37,42,43. […] Semi-quantification of myocardial fibrosis was done independently of one another by two blinded examiners. For this purpose, the percentage of cardiac muscle portions stained blue with Masson's trichrome in relation to the overall stained cardiac muscle was calculated. […]

Assay [4] has as its system HCM mice (αMHC^719/+). Nature of the assay: Semi-quantitative myocardial fibrosis score on Masson's trichrome sections, stereoisomers of pioglitazone (experimental setup C). The settings on record: αMHC^719/+ mice, 10 mg/kg/day orally, 6 weeks, vs untreated αMHC^719/+. The format is in vivo, mouse. The procedure: FIG. 13 Determination of myocardial fibrosis using histopathological sections of myocardium. The manifestation of myocardial fibrosis (blue-colored in the Masson's trichrome-stained histological sections) was determined semi-quantitatively by two blinded examiners in each case independently of one another. The scores assigned were 0 to 3:0: no fibrosis, 1: mild fibrosis; 2: moderate fibrosis, 3: severe fibrosis; 0.5: no to mild fibrosis, 1.5: mild to moderate fibrosis; 2.5: moderate to severe fibrosis, 3: severe fibrosis. The animals were genotyped in their 3rd postnatal week (as also described in accordance with experimental setup A). Between their 6th and 12th postnatal week, all 65 mice were orally administered a daily dose of 30 mg/kg cyclosporin A (CsA) which was added to their pellet diet to accelerate hypertrophic remodeling in the myocardium in the HCM mouse model^56. Between their 6th and 12th postnatal week, (a) 13 WT and 9 MHC^719/+ mice were in addition treated orally with the (R)-stereoisomer of a thiazolidinedione (pioglitazone) (10 mg/kg/day) or (b) 12 WT and 11 αMHC^719/+ mice were in addition treated orally with the (S)-stereoisomer (pioglitazone) (10 mg/kg/day). In their 12th postnatal week, they were subjected to in vivo transthoracic echocardiography. The animals were then euthanized for ex vivo examination (organ removal and histopathology) (see FIG. 11). Examination by echocardiography was done as follows—specifically: removal of the mice from the cage, weighing and visual assessment of the animals, performance of echocardiography according to standardized, published standard protocols in conscious animals after 30 minutes of observation^39,41,37,40. In order to quantify fibrosis, the removed hearts were fixed in 4% of paraformaldehyde, dehydrated, and placed in paraffin, as described above^37,42,43. 5-μm sections were stained with Masson's trichrome. Semi-quantification of myocardial fibrosis was done independently of one another by two blinded examiners. For this purpose, the percentage of cardiac muscle portions stained blue with Masson's trichrome in relation to the overall stained cardiac muscle was calculated. Perivascular and intramurine structures, the endocardium, and trabeculas were excluded in the calculation of the percentage of fibrosis. The classification was “no fibrosis,” “mild fibrosis,” “moderate fibrosis,” and “severe fibrosis.”

Where [5] appears, read: (R)-Pio p<0.001, (S)-Pio p=0.072.
Where [6] appears, read: (R)-Pio p=0.01, (S)-Pio p=0.916.

“Also recorded” adds a separate entry of the source.

Consider `CN(CCOc1ccc(CC2SC(=O)NC2=O)cc1)c1ccccn1` (racemic) [rosiglitazone, (RS)-5-({4-[2-(methyl-2-pyridinylamino)ethoxy]phenyl}methyl)-2,4-thiazolidinedione], for which the “myocardial mRNA expression of PPARγ” value in assay [1] is given as “increases the myocardial mRNA expression of PPARγ again almost completely to wild-type level”. In addition, the “changes in biophysical properties in the heart muscle cell and onset of myocardial hypertrophy and fibrosis” value in assay [2] was “largely prevents”.

Take `CCc1ccc(CCOc2ccc(C[C@H]3SC(=O)NC3=O)cc2)nc1` (single isomer, unassigned) [(R)-stereoisomer of pioglitazone]: the “development of myocardial hypertrophy (maximum thickness of the wall of the left ventricle)” value in assay [3] (setting [5]) is given as “significantly inhibited”; in assay [3] ((R)-Pio p<0.001, (S)-Pio p=0.072, listed as (R)-stereoisomer of a thiazolidinedione), “significantly lessened”. The “development of myocardial fibrosis (semi-quantitative score 0 to 3)” value was “significantly inhibited” in assay [4] (setting [6]) and “significantly lessened” in assay [4] ((R)-Pio p=0.01, (S)-Pio p=0.916, listed as (R)-stereoisomer of a thiazolidinedione).

Turning to `CCc1ccc(CCOc2ccc(C[C@@H]3SC(=O)NC3=O)cc2)nc1` (single isomer, unassigned) [(S)-stereoisomer of pioglitazone], the “development of myocardial hypertrophy (maximum thickness of the wall of the left ventricle)” value in assay [3] (setting [5]) is reported as “tends to result in lessened hypertrophy; also recorded: less pronounced”. The “development of myocardial fibrosis (semi-quantitative score 0 to 3)” value was “not in a reduction of myocardial fibrosis” in assay [4] (setting [6]) and “cannot be seen” in assay [4] ((R)-Pio p=0.01, (S)-Pio p=0.916, listed as S-stereoisomer of pioglitazone).
